Literature values, collected in patent US12150927B2, “Use of cannabidiolic acid in the treatment of autism spectrum disorder and associated disorders” (GW Research Limited, priority 2016, dated 2024).

Details: background statement; cited from earlier work

## Cc1c(C(=O)NN2CCCCC2)nn(-c2ccc(Cl)cc2Cl)c1-c1ccc(Cl)cc1 [rimonabant]
  side effects: serious side effects such as suicide ideation
